Test results published in US20240197869A1, “HYPERACTIVATORS OF MAMMALIAN DENDRITIC CELLS” (Corner Therapeutics, Inc., priority 2021, published 2024).

Key:
[1] = tested on: human monocyte-derived dendritic cells (moDCs); assay: Lipid titration: viability of human moDCs (CellTiter-Glo)
Protocol: Lipid Titration. After 6 days of differentiation into moDC, cells were collected and counted. Cells were replated at 100,000 cells/well in R10 media in 96-well flat bottom tissue culture-treated plates. LPS, serotype 055:B5 (Enzo Life Sciences) was added to a final concentration of 1 μg/mL in each well. After the addition of LPS, lipids were prepared. […] After two days of culture, cell cultures were used for endpoint analyses.
Endpoint Analyses. After culturing moDCs with PAMPs and DAMPs for two days, supernatant and cell samples were collected for analysis. Cells in culture were pelleted by centrifugation at 400×g for 5 min.
Quantification of Cell Viability. Cell viability was assessed by quantifying the presence of ATP as an indicator of metabolically active cells using the CellTiter-Glo Luminescent Cell Viability Assay (Promega). Metabolic activity was assessed following manufacturer's instructions. The CellTiter-Glo reagent was mixed with the cell pellets and remaining supernatant, and transferred to a white, opaque 96-well plate. Luminescence was measured on all wavelengths on a Spectramax iD3 plate reader (Molecular Devices) using an integration time of 500 ms. Percent viability was calculated relative to the control condition of moDCs treated with LPS.
Statistical Analyses. […] For each tested condition, cells from each donor were plated to be tested in triplicate.

[2] = Particle size by Dynamic Light Scattering (DLS); type: physicochemical; settings: particles of 22:0 Lyso PC and KP407 by solvent evaporation, after 0.45 um filtration
From the text: Particle size was quantified by Dynamic Light Scattering (DLS).

[3] = tested on: murine, FLT3L-differentiated DC; assay: Antigen uptake and presentation assay; type: cell-based, mouse
Protocol: Antigen uptake and presentation assay. To examine antigen uptake and the endocytic ability of BMDCs, pHrodo™ Red Dextran 10,000 MW was used (ThermoFisher). Briefly, FLT3L-derived BMDCs previously cultured with media alone, or treated for 24 hours with R848 alone or in combination with 22:0 Lyso PC, were incubated with pHrodo™ Red Dextran (40 ug/ml) for 45 minutes at 37° C., or at 4° C. (as a control for surface binding of the antigen). BMDCs were then washed and stained with Live/Dead Fixable Violet dye (ThermoFisher) to distinguish living cells from dead cells. Cells were then fixed with BD fixation solution and resuspended in MACS buffer. Red (APC) fluorescence of live cells was measured by flow cytometry. Fluorescence values of BMDCs incubated at 37° C. were reported as Mean Fluorescence Intensity (MFI) of pHrodo™ Red Dextran associated cells as normalized to MFI of pHrodo™ Red Dextran associated cells incubated at 4° C. To measure the efficiency of OVA peptide presentation on MHC-I, FLT3L-BMDCs were treated as described above and incubated with Endofit-OVA protein (0.5 mg/ml) for 1 hour at 37° C. […] The percentage of cells associated with the OVA peptide on MHC-I was calculated by flow cytometry. Data were acquired on a Symphony A3 flow cytometer (Becton-Dickenson) and analyzed with FlowJo software (Becton-Dickenson). […]

non-human primate PBMCs = assay: Cytokine secretion by non-human primate PBMCs (LegendPlex); type: cell-based, cynomolgus macaques
Protocol: Non-human primate PBMC hyperactivation. Whole blood from cynomolgus macaques was diluted with an equal volume of PBS. A solution of 90% Ficoll-Paque PLUS and 10% RPMI was made, and diluted whole blood was overlayed on top of the diluted Ficoll. Cells were centrifuged at 1000 rcf for 30 minutes at room temperature with no brakes. The buffy coat layer was collected and washed twice with PBS. If red blood cell contamination was present, cells were incubated in ACK lysis buffer for 2 minutes before being washed with PBS to remove lysed red blood cells.
Isolated PBMC were plated at 1×10^6 cells/well and cultured with or without hyperactivating stimuli. After 2 days incubation, cells were assessed for viability, and cell culture supernatant was used to measure cytokine output. Commercially available kits such as Biolegend LegendPlex kits were used as directed by manufacturer's protocol to quantify cytokines of interest.
PBMC were obtained from 13 cynomolgus macaques. Each activation condition was tested in triplicate, and the mean value of the triplicate is graphed for the animal sample. Repeated measures one-way ANOVA was used to test for statistical significance followed by Dunnett's multiple comparisons test.

human naïve CD4+ T cells = assay: Mixed lymphocyte reaction: polarization of naïve CD4 T cells (flow cytometry); type: cell-based
Protocol: Mixed lymphocyte reaction. Human monocytes were isolated from leukopheresis products using Miltenyi StraightFrom LeukoPak CD14 microbeads as directed by manufacturer. To isolate naïve CD4 T cells, whole blood was diluted with an equal volume of PBS. Diluted blood was layered on top of Ficoll-Paque PLUS solution and spun at 1000 rcf for 20 minutes at room temperature with no brakes. Buffy coat layer was collected, washed, and counted. Miltenyi human naïve CD4 T cell microbead isolation kits were used to isolate cells of interest from the PBMC according to manufacturer's instructions. Collected cells were cryogenically stored in 90% FBS and 10% DMSO.
Monocytes were differentiated into moDC. moDC were counted and plated in U-bottom plates at 2×10^4 cells/well and treated with hyperactivating stimuli or control conditions. After one day of culture, 1×10^5 cells/well naïve CD4 T cells from a different (allogeneic) human donor were thawed and added to the cultures with 100 ng/mL IL-2. Cells were cocultured for 5 days with an IL-2 feed on the third day of coculture. After 5 days, cells were reactivated for four hours using Leukocyte Activation Cocktail with BD GolgiPlug (BD Biosciences). Cells were stained to determine the resulting polarization of activated T cells via flow cytometry. Intracellular staining targets required the use of BD Biosciences Transcription Factor Buffer set to fix and permeabilize cells prior to the intracellular staining step.
Ten moDC donor samples were tested in MLR assay. Staining results were analyzed using FlowJo software, and consistent gating strategies were applied to all samples. Frequency of activated cells was graphed as a percentage of CD4 T cells in each sample. Paired t-tests were used to determine statistical significance.

[4] = tested on: human monocyte-derived dendritic cells (moDCs); assay: DAMP screen: IL-1β secretion by LPS-activated human moDCs (ELISA); type: cell-based
Protocol: Danger-Associated Molecular Pattern (DAMP) Screen.
Quantification of IL-1beta Secretion. IL-1beta secretion was assessed using the ELISA MAX Deluxe Set Human IL-1beta kit (Biolegend). ELISAs were performed according to manufacturer's instructions with the following modifications: i) total sample volume for incubation was reduced from […] the top standard was prepared at […], with two-fold dilutions to […]; and iii) sample incubation was completed overnight at 4 C on an orbital shaker. […] To determine IL-1beta concentration in supernatants, sample IL-1beta concentrations were interpolated using a standard curve via 4PL analysis on GraphPad Prism 9 (GraphPad Software). The interpolated results of samples were then adjusted for any dilutions made to the supernatant.

[5] = 82.5 uM lipid + R848 vs R848 alone, 2 days
[6] = moDC treated with R848 + 22:0 LPC

## CCCCCCCCCCCCCCCCCCCCCC(=O)OC[C@@H](O)COP(=O)([O-])OCC[N+](C)(C)C [22:0 LYSO PC, 1-behenoyl-2-hydroxy-sn-glycero-3-phosphocholine]
[1]; 10.3 μM lipid + LPS
  moDC viability (in words): retained high viability
[1]; 10.3 μM lipid + LPS 1 μg/mL, 2 days, relative to LPS-treated moDCs, Table 1-5
  Relative Viability (%) ± SD: 89.1%
[1]; 20.6 μM lipid + LPS
  moDC viability (in words): reduced cell viability somewhat
[2]
  particle diameter: approximately 1500 nm
[3]; R848 + lipid
  OVA antigen processing and cross-presentation on MHC-I (in words): did not interfere with these functions
[3]; R848 with vs without lipid, 24 h
  antigen uptake (Red pHrodo dextran) (in words): does not compromise the antigen uptake capacity of DCs
non-human primate PBMCs; 41.3 uM lipid + R848
  cytokine fold changes relative to R848 alone (in words): not as markedly increased
non-human primate PBMCs; 82.5 uM lipid + R848 1 μg/mL vs R848 alone, 2 days
  IL-1beta output (in words): increased the IL-1beta output
non-human primate PBMCs; [5]
  IFN-beta secretion (in words): increased
  IFN-gamma secretion (in words): significantly increased
  IL-8 secretion (in words): increased
  IL-17a secretion (in words): increased
  IL-23 secretion (in words): increased
Human naïve CD4+ T cells; [6]
  Th2 polarization (Gata3, IL-4) (in words): minimal Th2 polarization occurred
  Th17 cells (RORg, IL-17) (in words): not detected
Human naïve CD4+ T cells; moDC treated with R848 + 22:0 LPC vs R848 alone
  frequency of polyfunctional Th1 cells (IFN-gamma and TNF-alpha) (in words): increased in frequency
Human naïve CD4+ T cells; moDC treated with R848 + 22:0 LPC vs R848 alone, 5 days coculture
  frequency of Th1 cells (in words): increased the frequency of Th1 cells
[4]; 41.3 μM lipid + LPS 1 μg/mL, 2 days, Table 1-2
  IL-1β secretion: 1904.2 pg/mL
[4]; 82.5 μM lipid + LPS, selected lipids, Table 1-3 (repeats Table 1-1)
  IL-1β secretion: 2130.9 pg/mL
